{"source": "paper PMC6836644", "about": "“A multiple classifier system identifies novel cannabinoid CB2 receptor ligands” (Journal of Cheminformatics, 2019)"}
{"molecular_target": "T1, human CB2 receptor (Homo sapiens, UniProt P34972)", "T1 construct": "beta-galactosidase fragment (the cell line's name says 'bgal'; own knowledge: PathHunter enzyme-fragment-complementation lines carry a small beta-gal fragment fused to the receptor's C-terminus); host or cells: CHO-K1 (CHOK1hCB2_bgal), membranes", "T1 sequence (P34972 whole entry, the tested form may be a part)": "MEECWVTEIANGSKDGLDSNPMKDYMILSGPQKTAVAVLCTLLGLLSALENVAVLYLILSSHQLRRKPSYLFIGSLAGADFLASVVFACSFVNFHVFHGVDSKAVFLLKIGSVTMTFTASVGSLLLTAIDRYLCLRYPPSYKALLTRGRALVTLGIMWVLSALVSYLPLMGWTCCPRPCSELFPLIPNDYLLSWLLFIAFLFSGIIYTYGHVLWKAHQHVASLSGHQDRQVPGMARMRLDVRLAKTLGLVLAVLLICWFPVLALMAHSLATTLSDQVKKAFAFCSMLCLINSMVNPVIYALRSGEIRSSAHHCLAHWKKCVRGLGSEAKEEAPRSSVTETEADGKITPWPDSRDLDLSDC", "test": "[3H]CP55940 displacement assay", "format": "binding", "conditions": "10 μM of the compound; [3H]CP55940, CHOK1hCB2_bgal membranes", "description": "(§1) CHOK1hCB2_bgal cells (DiscoverRx, Fremont, CA, USA) were cultured in Dulbecco’s Modified Eagle’s Medium/Nutrient Mixture F-12 Ham supplemented with 10% fetal calf serum, 1 mM glutamine, 50 µg/mL penicillin, 50 µg/mL streptomycin, […] hygromycin and 800 µg/mL geneticin in a humidified atmosphere at 37 °C and 5% CO2. Cells were subcultured twice a week at a ratio of 1:20 on 10-cm diameter plates by trypsinization. For membrane preparation, the cells were subcultured with a ratio of 1:10 and transferred to 15-cm diameter plates. The cells were collected by scraping in 5 mL phosphate-buffered saline (PBS) and centrifuged at 1000 g for 5 min. Pellets derived from 30 plates were combined and resuspended in 20 mL cold Tris–HCl, MgCl2 buffer (50 mM Tris–HCl (pH 7.4), 5 mM MgCl2). The cell suspension was homogenized using an UltraTurrax homogenizer (Heidolph Instruments Schwabach, Germany). Membranes and cytosolic fractions were separated by centrifugation in a Beckman Optima LE-80 K ultracentrifuge (Beckman Coulter Inc., Fullerton, CA, USA) at 100,000 g for 20 min at 4 °C. The supernatant was discarded. The pellet was resuspended in 10 mL cold Tris–HCl, MgCl2 buffer and homogenization and centrifugation steps were repeated. The membranes were resuspended in 10 mL cold Tris–HCl, MgCl2 buffer. Aliquots of 50 µL were stored at -80 °C until further use. The protein concentration was determined using the Pierce™ BCA Protein Assay Kit (ThermoFisher Scientific, Waltham, MA, USA).\n(§2) At first, all compounds were tested at a final concentration of 10 µM. […] Six different concentrations of the compounds were added by an HP D300 digital dispenser (Tecan Group Ltd, Männedorf, Switzerland). In order to determine the total binding, a control without test compound was included. Nonspecific binding was determined in the presence of 10 µM AM630. The total assay volume was 100 µL. The final concentration of DMSO was ≤ 0.25%. The incubation was terminated by rapid vacuum filtration through GF/C 96-well filter plates (PerkinElmer, Waltham, MA), to separate the bound and free radioligand, using a PerkinElmer Filtermate-harvester (PerkinElmer, Groningen, The Netherlands). Filters were subsequently washed […] with ice-cold assay buffer. The filter-bound radioactivity was determined by scintillation spectrometry using a Microbeta2® 2450 microplate counter (PerkinElmer, Boston, MA), after addition of 25 μl MicroScint 20 (PerkinElmer, Groningen, The Netherlands) and 3 h incubation.\n(§3) All experimental data were analyzed using GraphPad Prism 7 [36]. The data were normalized to percentage specific radioligand binding, where the total binding is 100% and nonspecific binding is 0%. […] All data were obtained from three separate experiments performed in duplicate.", "units": {"% displacement of the radioligand": "%"}}
{"smiles": "CCn1cc(C(=O)NCC2(N3CCOCC3)CCCCC2)c(=O)c2ccc(C)nc21", "note": "[Z27019562]", "% displacement of the radioligand": 30}
{"smiles": "Cc1nn(-c2ccccc2)c2sc(C(=O)NC34CC5CC(CC(C5)C3)C4)cc12", "note": "[Z27687279]", "% displacement of the radioligand": 38}
{"smiles": "CC1(C)C2CCC1(C)C(NC(=O)C1CCN(S(=O)(=O)c3ccc(F)c(F)c3)CC1)C2", "note": "(centres unmarked) [Z28357392]", "% displacement of the radioligand": 26}
{"smiles": "CCC(NC(=O)c1cccc(S(=O)(=O)N2CCOCC2)c1)C12CC3CC(CC(C3)C1)C2", "note": "(centres unmarked) [Z28609248]", "% displacement of the radioligand": 16}
{"smiles": "CC1(C)C2CC=C(/C=N/NC(=O)CCc3ccc(S(=O)(=O)N4CCOCC4)cc3)C1C2", "note": "(centres unmarked) [Z44867007]", "% displacement of the radioligand": 0}
{"smiles": "COc1ccc(C=C(C(=O)NC2CCCCC2)C(=O)NC2CCCCC2)cc1OC", "note": "[Z46091805]", "% displacement of the radioligand": 38}
{"smiles": "CCN(CC)c1ccc(S(=O)(=O)N2CCOCC2)cc1NS(=O)(=O)CC12CCC(CC1=O)C2(C)C", "note": "(centres unmarked) [Z55473655]", "% displacement of the radioligand": 7}
{"smiles": "CCC(C)(C)C1CCC(NC(=O)c2cc(S(=O)(=O)N3CCOCC3)ccc2C)CC1", "note": "(centres unmarked) [Z91179667]", "% displacement of the radioligand": 29}
{"smiles": "CC(C)C(NC(=O)CN1CCN(c2nccn2C)CC1)c1ccc2c(c1)OCCCO2", "note": "(centres unmarked) [Z1317886912]", "% displacement of the radioligand": 3}
{"smiles": "CC1(CN2CCOCC2)CCN(CC(=O)N2CCc3sccc3C2)CC1", "note": "[Z1523102560]", "% displacement of the radioligand": 18}
{"smiles": "COc1ccc2c(c1)c(C(=O)N(C)CC(C)OC)c(C)n2C1CC1", "note": "(centres unmarked) [Z2094674960]", "% displacement of the radioligand": 0}
{"molecular_target": "T1, human CB2 receptor", "test": "[3H]CP55940 displacement assay", "format": "binding", "conditions": "[3H]CP55940 (~1.5 nM) displacement, CHOK1hCB2_bgal membranes, 25 °C, 2 h; three separate experiments in duplicate", "description": "as §1, §2, §3"}
{"smiles": "Cc1ccc(NC(=O)C2CCC(C(C)(C)C)CC2)cc1S(=O)(=O)N1CCOCC1", "note": "(centres unmarked) [Z26476746]", "pKi ± SEM": "6.54 ± 0.14"}
{"smiles": "CCOC(=O)c1c(NC(=O)CC23CC4CC(CC(C4)C2)C3)sc2c1CCCC2", "note": "[Z27680708]", "pKi ± SEM": "7.46 ± 0.32"}
{"smiles": "Cc1ccc(C(=O)NC23CC4CC(CC(C4)C2)C3)cc1S(=O)(=O)N1CCCCC1", "note": "[Z27687312]", "pKi ± SEM": "7.22 ± 0.46"}
{"smiles": "CCCCn1nc(C(=O)NC2CC3CCC2(C)C3(C)C)c2ccccc2c1=O", "note": "(centres unmarked) [Z28357657]", "pKi ± SEM": "6.81 ± 0.29"}
{"smiles": "Cc1ccc(C(=O)NC2CCCC(C)C2C)cc1S(=O)(=O)N1CCOCC1", "note": "(centres unmarked) [Z32934509]", "pKi ± SEM": "6.47 ± 0.02"}
{"smiles": "CCc1ccc(C(=O)NC(C)C23CC4CC(CC(C4)C2)C3)cc1S(=O)(=O)N1CCOCC1", "note": "(centres unmarked) [Z336532434]", "pKi ± SEM": "7.67 ± 0.17"}
